Results on one compound are retold here after patent US9290427B2, “Anti-invasive compounds” (Universiteit Gent, priority 2012, dated 2016).

The test system of data set [1] is MCF-7/6 mammary carcinoma cell line. The data set is described as follows: in vivo survival study after intracardial injection of MCF-7/6 cells. Also on record: species or system Swiss nu/nu mice. As to conditions: for # at risk / # deaths / psurv: 10 nmol i.p. thrice a week; for pcum: cumulative probability of survival. Here is the method: In order to evaluate the in vivo potency of 4-fluoro-3′,4′,5′-trimethoxychalcone 49 against the MCF-7/6 mammary carcinoma cell line, a broadly used metastasis experiment involving intracardial injection of the cancer cells was conducted. One week after subcutaneous implantation of an estrogen pellet (1 mg) in the dorsal region of the neck, […] Swiss nu/nu mice were injected in the left cardiac ventricle with 1.10^5 MCF-7/6 cells under xylazine and ketamine anesthesia (Smith W., 1993).
By virtue of injection into the left cardiac ventricle, cancer cells directly enter systemic arterial circulation, which enhances the chance for colonization (Arguello et al., 1988). […] However, since these metastases are difficultly detectable and quantifiable, survival time was chosen as the sole end point in this study.
Upon inoculation, mice were divided randomly into two equal groups. One cohort was intraperitoneally injected with 10 nmol of 49 thrice a week (160 μg·kg^−1 for a 20 g animal), while the other group only received the vehicle (100 μL of serum-free DMEM containing 1:1000 DMSO).
Twenty 6-week old female Swiss nu/nu mice were given a subcutaneous estrogen implant (1 mg) in the dorsal region of the neck. One week later, intracardial injection of 100,000 MCF-7/6 cells in […] of PBS^D^+ was performed. Animals were anesthesized priorly by i.p. injection of xylazine (5 μL, Rompun®) and ketamine (36 μL, Ketalar®). Intracardial injection was performed with a 30 G needle (½″), which was introduced into the thoracic cavity underneath the sternum. Upon protrusion of the wall of the left ventricle, blood is pumped into the syringe. At this moment, careful injection of the cancer cells can be conducted. Next, mice were randomly divided into a vehicle control and a 49-treated cohort.
From the inoculation date on, mice were treated i.p. three times a week with 100 μL of a 100 μmol·L^−1 solution of 49 in serum-free DMEM containing 1:1000 DMSO, or with vehicle alone (see “preparation procedure”). Survival numbers for both cages were recorded on a daily basis.
“Preparation procedure”: for the 49-treated group, 100 mmol·L^−1 solutions of 49 in DMSO were freshly prepared on each injection day, and diluted 1:1000 with serum-free DMEM so as to obtain injectable solutions of 100 μmol·L^−1 of 49. Control mice were given i.p. injections with 100 μL of the vehicle (1:1000 DMSO in serum-free DMEM).

In the next data set the test system is MCF-7/6 cells. The data set is described as follows: Sulforhodamine B (SRB) test, MCF-7/6. It counts as cell-based, human. The procedure: (§1) The SRB assay is used to evaluate growth effects on cells, and measures the total protein content. In this test, 5,000 cells are seeded in a cup of a 96-well plate. Upon a 24 h-attachment period, cells are treated with a certain amount of the test molecule (dissolved in DMSO). After a pre-chosen incubation time, cells are fixed with 50 μL of 50% trichloroacetic acid (2° C., 1 h). Afterward, the plate is rinsed five times with tap water, and air dried overnight.
(§2) Next, proteins are stained with 75 μL of a 0.4% solution of SRB in AcOH (30 min). Unbound SRB is subsequently removed by washing with a 1% solution of glacial AcOH, whereupon the plate is air dried. Then, bound SRB is redissolved in 100 μL of a 10 mmol·L^−1 tris(hydroxymethyl)aminomethane (Tris) buffer (pH=10.5), after which optical density is determined at 490 nm with a spectrophotometer.
Besides, also an SRB assay was performed. This test is based on the ability of the dye sulforhodamine B (SRB) to bind electrostatically on basic amino acid residues of protein in trichloroacetic acid-fixed cells. Results obtained in the SRB assay are linearly proportional to the amount of cellular protein and thus to the cell number.
Background: In SRB staining, fixed cells bind dye roughly in proportion to their protein.

In a further data set the test system is MCF-7/LucF5 cells. The data set can be described thus: SRB test, MCF-7/LucF5. It counts as cell-based, human. Here is the method:
as §1, §2
In order to further validate the use of the MCF-7/LucF5 cells in our in vivo experiments, the effects of 4-fluoro-3′,4′,5′-trimethoxychalcone on this cell line in the MTT and SRB assays were determined as well (Van Hoorde L. et al., 1999).

Another data set relates to BLM melanoma cells. The data set can be described thus: MTT test, BLM. It counts as cell-based. The procedure:
(§3) An MTT test provides an indication of cell viability, proliferation and activity through determination of the mitochondrial conversion of 3-(4,5-dimethylthiazol-2-yl)-2,5-diphenyltetrazolium bromide (MTT), a yellow salt, into formazan, a salt that precipitates under the form of blue crystals.
(§4) In concreto, 5,000 cells are seeded in a cup of a 96 well-plate, treated with the desired amount of the test substance, and incubated for a chosen period of time. Next, 40 μL of a filtered (0.2 μm) 5 mg·mL^−1 solution of MTT in PBS is added to the cup. After 2 h of incubation at 37° C. in the dark, all liquid is removed. The obtained formazan salts are dissolved in 200 μL of DMSO, whereupon optical density is measured at 490 nm.
As 4-fluoro-3′,4′,5′-trimethoxychalcone had exerted an anti-invasive activity on BLM melanoma cells in the Matrigel invasion assay, we were intrigued to verify how its effect on the viability of BLM cells would compare to that observed for the MCF-7 cell lines.
In general terms: Tetrazolium assays rely on reduction of a dye to a coloured formazan, in cell work by metabolically active cells.

Another data set concerns 3T3-L1 cells. The data set can be described thus: MTT test, 3T3-L1. It counts as cell-based, murine. The settings on record: 10 μmol·L−1, 24 h. Here is the method: as §3, §4
In order to verify whether the antiproliferative effects of compound 49, witnessed in BLM and MCF-7/6 cells at high concentrations, were cell specific, additional SRB and MTT assays on a further five cell lines (HCT8-E11, TR146, FaDu, 3T3-L1 and CT5.3) were conducted (FIG. 8). The results for MCF-7/6 cells were added to facilitate comparison.
The CT5.3 cell line consists of human myofibroblasts which were isolated from a colon tumor (Van Hoorde et al., 1999). 3T3-L1 cells are murine fibroblasts, originating from embryo's of Swiss mice (Todaro and Green, 1963). HCT8-E11, FaDu and TR146 are human epithelial cancer cell lines. […]

The mark [2] stands for this setting: elevated concentrations 10-100 μmol·L−1, summary.

Take `COc1cc(C(=O)/C=C/c2ccc(F)cc2)cc(OC)c1OC` [Compound 49, (2E)-3-(4-Fluorophenyl)-1-(3,4,5-trimethoxyphenyl)propenone]: the entries for the “# at risk” value in data set [1] (Day 5), in data set [1] (Day 40) and in data set [1] (Day 61) were 10, 9 and 8, respectively. The “# deaths” value in data set [1] (Day 5) and in data set [1] (Day 40) was 1 throughout. Besides, the results for the psurv in data set [1] (Day 5), in data set [1] (Day 40) and in data set [1] (Day 61) were 0.9, 0.89 and 1, respectively. The pcum in data set [1] (Day 5) was found to be 0.9; in data set [1] (Day 40), 0.8; in data set [1] (Day 61), 0.8. In addition, the number of cells result with MCF-7/6 cells (1 μmol·L−1, FIG. 6) is “smaller but still significant reduction”. For the same compound, the “change in total protein content” value in the data set with MCF-7/6 cells (10 μmol·L−1, 24 h, decreasing trend, not significant) was −10%. In the data set with MCF-7/6 cells (100 and 10 μmol·L−1, FIG. 6 (72 and 144 h), p<0.01), the “total protein content relative to solvent control” value is given as “significant reduction”. The “reduction in total protein content” value in the data set on MCF-7/6 cells (setting [2]) and in the data set with MCF-7/LucF5 cells (setting [2]) was approximately 50% each time. In addition, the cell count entry with MCF-7/LucF5 cells (1 and 0.1 μmol·L−1, 72 h (p=0.0703 and 0.0538)) is “marginally significant reduction”. Besides, the total protein content result in the data set on MCF-7/LucF5 cells (100 or 10 μmol·L−1, 72 h (p=0)) was “significant reduction”. Besides, the “reduction of BLM cell viability (mitochondrial activity)” value is 22% with BLM melanoma cells (0.1 μmol·L−1, 24 h); 27% in the data set on BLM melanoma cells (1 μmol·L−1, 24 h); 76% with BLM melanoma cells (100 μmol·L−1, 24 h). Further, the “reduction in mitochondrial activity” value was determined as 40% in the data set with BLM melanoma cells (10 μmol·L−1, 24 h) and 30% in the data set with 3T3-L1 cells.
